US7557089B2, “Use of derivatives of succinate esters for the treatment of dementia” (priority 2002, dated 2009)
Where two headings read alike, the source gives them in different places.

Experiments:
[1] = test system: memory impairment induced by scopolamine; test: Step-down passive avoidance test, impairment caused by scopolamine in mice; format: in vivo, Male ICR mice; details: for Number of errors: during 5 min; for Number of errors / Latency: scopolamine 1 mg/kg i.p.; for effect on scopolamine-induced impairment of passive avoidance (step-down latency, number of errors): result in words
Experimental: Male ICR mice, 24-28 g, were used. The mice were housed for 2 days period of habituation before experiment. Mice were randomized into groups (n=20).
The mice were administered by gavage of physiological saline, or drugs at different doses, respectively in the negative control, scopolamine group, and test drugs groups. Twice daily for 2 days.
At D3, 30 min after administration of test drugs, scopolamine (1 mg/kg i.p) was administered, except for the control group.
30 min later, each mouse was individually placed onto the safety platform in the box of step-down apparatus. When the mouse stepped down and touched the grid floor, it was given an electric shock with a tension of 36V, and jumped back onto the rubber platform. Each animal was trained for 5 min and returned to the home cage.
24 hours after the learning trial, the animal was again placed on the platform and the step-down latency and the number of step-down events (number of errors) during 5 min were recorded.

[2] = test system: cycloheximide-induced memory deficit; test: Step-down passive avoidance test, impairment induced by cycloheximide in mice; format: in vivo; details: for Improvement (%): step-down latency; for Improvement (%) / Latency / No. of errors: cycloheximide 120 mg/kg i.p.; for Latency / No. of errors: step-down test; for No. of errors: during 5 min
Experimental: The randomization and the administration of drugs are as before. The mice were administered with cycloheximide (120 mg/kg i.p), except for the control group. 30 min later, each mouse was individually placed onto the platform of the step-down apparatus, and trained for 5 min. The retention test started 24 hours later, the step-down latency and the number of step-down events (number of errors) during 5 min were recorded.

[3] = test system: learning and memory performance impairment caused by permanent occlusion of carotid arteries; test: Water-maze test, permanent occlusion of 2 carotid arteries (2-VO) in mice; format: in vivo; details: 2-VO mice, four weeks after surgery, dose 1 mg/kg po daily
Excerpt: (§1) Water-maze test: Each mouse was first placed on the stairs, then released into the water from position 1 and allowed 120 sec to find the stairs. The mouse received 2 trials per day for 3 days. The starting location varied from position 1 to position 2 and position 3 for the next 2 day. The distance and the dead end increased every day. In D4, the mouse was put into water from position 3, the time to escape from water to the stairs and the number of entering the dead ends (number of errors) were measured. This method is used to evaluate the spatial performance and learning and memory performance of animal.
(§2) At surgery, under pentobarbital anaesthesia (40 mg/kg i.p.), the common carotid arteries of mice were exposed and occluded with thread permanently and the surrounding skin sutured. Sham-operated controls had their carotids exposed but not occluded. After 1 week, the survival mice with occluded carotids were randomly divided into 3 groups. 2 groups were repeated administered with CE (5 mg/kg, po) or W6 (1 mg/kg, po) daily. Four weeks after surgery, mice were trained and tested in a water maze and step-down apparatus.

[4] = test system: learning and memory performance impairment caused by permanent occlusion of carotid arteries; test: Step-down test, permanent occlusion of 2 carotid arteries (2-VO) in mice; format: in vivo
Experimental: as §2

[5] = test system: Aβ(1-42)-induced memory impairment; test: Water-maze test, Aβ(1-42)-induced impairment of learning and memory in mice; format: in vivo
Experimental: (§3) Aβ(1-42) (10 μg/mouse) was administered via ICV injection. The sham group was given same volumn of Ringer's solution. One week later, The mice with injection of Aβ(1-42) were randomly divided into 3 groups, and were administered by oral with saline, CE (5 mg/kg) or W6 (1 mg/kg), respectively. Two weeks later, step-down test and water-maze test were performed for evaluating the capacity of learning and memory of mice.
as §1

KM mice = test: Acute toxicity study in mice; format: in vivo; details: 0.5 g/kg i.p. or p.o.
Excerpt: KM mice were used for this experiment. 10 male and 10 female mice were included in each group. CE (5 g/kg) or W6-W9 (0.5 g/kg) were given by oral or by i.p. The animals were observed carefully and their body weight were checked every 3 days within 2 weeks.

[6] = biological target: Acetylcholinesterase (AchE) (Rattus norvegicus, UniProt P37136); details: for inhibition (%): AchE activity, rat forebrain; for AchE activity: rat forebrain homogenate
Chain of Acetylcholinesterase (AchE) (P37136 32-614): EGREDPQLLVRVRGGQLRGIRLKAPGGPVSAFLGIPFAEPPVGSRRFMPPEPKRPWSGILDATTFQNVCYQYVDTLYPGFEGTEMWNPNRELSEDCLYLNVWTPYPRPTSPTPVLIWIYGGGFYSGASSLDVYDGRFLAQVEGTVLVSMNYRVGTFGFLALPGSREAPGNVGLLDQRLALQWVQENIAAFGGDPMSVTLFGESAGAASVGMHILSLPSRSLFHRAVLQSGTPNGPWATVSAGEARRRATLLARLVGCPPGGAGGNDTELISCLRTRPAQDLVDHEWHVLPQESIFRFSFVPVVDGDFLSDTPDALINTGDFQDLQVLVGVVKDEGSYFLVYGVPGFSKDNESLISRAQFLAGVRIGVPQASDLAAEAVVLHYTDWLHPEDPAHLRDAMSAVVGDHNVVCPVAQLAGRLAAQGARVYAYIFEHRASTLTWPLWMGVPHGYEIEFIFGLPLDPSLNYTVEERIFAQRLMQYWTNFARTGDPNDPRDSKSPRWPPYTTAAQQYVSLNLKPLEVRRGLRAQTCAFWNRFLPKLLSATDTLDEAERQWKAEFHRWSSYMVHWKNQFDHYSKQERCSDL
Experimental: The rats were fasting over night and given a single oral dose of drugs. 1 hour later, the rats were decapitated, the forebrains were rapidly removed under ice bath, weighed and homogenized in 0.9% saline using a ultrasonic homogenizer to obtain 10% brain homogenate. The homogenate was centrifuged (6000 rpm) for 20 mins at low temperature, and retained the supernatant. Then the AchE activity was measured with an assay kit.

[7] = test system: Aβ(1-42)-induced memory impairment; test: Step-down test, Aβ(1-42)-induced impairment (ICV injection) in mice; format: in vivo
Experimental: as §3

[8] = step-down test, 2-VO mice, four weeks after surgery, dose 1 mg/kg po daily
[9] = 1 hour after single oral dose 5 mg/kg
[10] = 1 hour after single oral dose 20 mg/kg
[11] = step-down test, Aβ(1-42) 10 μg/mouse ICV, mice, dose 1 mg/kg oral, two weeks

For `CC(C)CC(O[C@@H]1O[C@H](CO)[C@@H](O)[C@H](O)[C@H]1O)(C(=O)OCc1ccc(O[C@@H]2O[C@H](CO)[C@@H](O)[C@H](O)[C@H]2O)cc1)C(O)C(=O)OCc1ccc(O[C@@H]2O[C@H](CO)[C@@H](O)[C@H](O)[C@H]2O)cc1` (stereo partly drawn) [Compound W6, 1,4-bis(β-D-glucopyranosyloxybenzyl)-2-β-D-glucopyranosyl-2-isobutyltartrate], the Number of errors ([1]; dose 0.03 mg/kg by gavage) was 0.2 ± 0.1, the Number of errors ([1]; dose 0.3 mg/kg by gavage) was 0.4 ± 0.2 and the Number of errors ([1]; dose 3 mg/kg by gavage) was 0.3 ± 0.1. For the same compound, the “effect on scopolamine-induced impairment of passive avoidance (step-down latency, number of errors)” value (“effect … (step-down latency, number of errors)” below) [1] was “attenuated the scopolamine-induced impairment of passive avoidance behaviors”, the “Latency” value ([1]; dose 0.03 mg/kg by gavage) was 283 ± 38 s and the “Latency” value ([1]; dose 0.3 mg/kg by gavage) was 259 ± 34 s. For the same compound, the “Latency” value ([1]; dose 3 mg/kg by gavage) was 258 ± 17 s, the “effect on cycloheximide-induced reduction of latency and number of errors” value ([2]; passive avoidance, result in words) was “significantly reversed the cycloheximide-induced reduction of step-down latency” and the “Improvement (%)” value ([2]; dose 1.25 mg/kg) was 57%. For the same compound, the “Improvement (%)” value ([2]; dose 2.5 mg/kg) was 65%, the “Improvement (%)” value ([2]; dose 5 mg/kg) was 38% and the “Improvement (%)” value ([2]; dose 10 mg/kg) was 61%. For the same compound, the “Latency” value ([2]; dose 1.25 mg/kg) was 211 ± 31 s, the “Latency” value ([2]; dose 2.5 mg/kg) was 223 ± 24 s and the “Latency” value ([2]; dose 5 mg/kg) was 182 ± 33 s. For the same compound, the “Latency” value ([2]; dose 10 mg/kg) was 216 ± 29 s, the No. of errors ([2]; dose 1.25 mg/kg) was 0.6 ± 1.2 and the No. of errors ([2]; dose 2.5 mg/kg) was 0.7 ± 0.9. The No. of errors ([2]; dose 5 mg/kg) was 0.4 ± 0.5, the No. of errors ([2]; dose 10 mg/kg) was 0.3 ± 0.5 and the “Escape Latency” value [3] was 33 ± 19 s. The Number of errors [3] was 5.4 ± 1.4, the “effect on deficits of learning and memory caused by cerebral hypoperfusion” value ([4]; mice and rats, long term treatment, step-down testing and water-maze testing, result in words) was “significantly alleviated these changes” and the “Latency” value [4, 8] was 253 ± 31 s. The Number of errors [4, 8] was 0.2 ± 0.1, the “effect on Aβ(1-42)-induced decrease in spatial working memory” value ([5]; treatment for 2 weeks, water maze, result in words) was “significantly improved” and the Number of errors ([5]; water-maze test (entering dead ends), Aβ(1-42) 10 μg/mouse ICV, mice, dose 1 mg/kg oral, two weeks) was 3.1 ± 0.8. For the same compound, the “Escape Latency” value ([5]; water-maze test, Aβ(1-42) 10 μg/mouse ICV, mice, dose 1 mg/kg oral, two weeks) was 46 ± 11 s, the “acute toxicity (animal death and body weight)” value (from here on “acute toxicity”) (KM mice) was “The result is the same” and the “inhibition (%)” value [6, 9] was 0%. The “inhibition (%)” value [6, 10] was 0%, the AchE activity [6, 9] was 0.80 ± 0.16 and the AchE activity [6, 10] was 0.72 ± 0.16. The “inhibition on activity of AchE” value ([6]; single dose to rats) was “no inhibition”, the “effect on Aβ(1-42)-induced impairment in passive avoidance performance” value ([7]; mice or rats, treatment for 2 weeks, result in words) was “significantly blocked” and the “Latency” value [7, 11] was 110 ± 37 s. For the same compound, the Number of errors [7, 11] was 0.9 ± 0.2.
In the case of `CC(C)CC(CC(=O)OCc1ccc(O[C@@H]2O[C@H](CO)[C@@H](O)[C@H](O)[C@H]2O)cc1)(O[C@@H]1O[C@H](CO)[C@@H](O)[C@H](O)[C@H]1O)C(=O)OCc1ccc(O[C@@H]2O[C@H](CO)[C@@H](O)[C@H](O)[C@H]2O)cc1` (stereo partly drawn) [Compound W8, 1,4-bis(β-D-glucopyranosyloxybenzyl)-2-β-D-glucopyranosyl-2-isobutylmalate], the Number of errors ([1]; dose 0.25 mg/kg by gavage) was 0.7 ± 0.9, the Number of errors ([1]; dose 1 mg/kg by gavage) was 0.3 ± 0.5 and the “effect … (step-down latency, number of errors)” value [1] was “attenuated the scopolamine-induced impairment of passive avoidance behaviors”. The “Latency” value ([1]; dose 0.25 mg/kg by gavage) was 197 ± 144 s, the “Latency” value ([1]; dose 1 mg/kg by gavage) was 218 ± 127 s and the “acute toxicity” value (KM mice) was “The result is the same”.
For `CC(C)CC(O)(CC(=O)OCc1ccc(O[C@@H]2O[C@H](CO)[C@@H](O)[C@H](O)[C@H]2O)cc1)C(=O)OCc1ccc(O[C@@H]2O[C@H](CO)[C@@H](O)[C@H](O)[C@H]2O)cc1` (stereo partly drawn) [Compound W9, 1,4-bis(β-D-glucopyranosyloxybenzyl)-2-hydroxy-2-isobutylmalate], the Number of errors ([1]; dose 0.25 mg/kg by gavage) was 0.8 ± 0.7, the Number of errors ([1]; dose 1 mg/kg by gavage) was 0.4 ± 0.5 and the “effect … (step-down latency, number of errors)” value [1] was “attenuated the scopolamine-induced impairment of passive avoidance behaviors”. For the same compound, the “Latency” value ([1]; dose 0.25 mg/kg by gavage) was 140 ± 129 s, the “Latency” value ([1]; dose 1 mg/kg by gavage) was 210 ± 134 s and the “acute toxicity” value (KM mice) was “The result is the same”.
In the case of `CC(C)CC(O)(C(=O)OCc1ccc(O[C@@H]2O[C@H](CO)[C@@H](O)[C@H](O)[C@H]2O)cc1)C(O)C(=O)OCc1ccc(O[C@@H]2O[C@H](CO)[C@@H](O)[C@H](O)[C@H]2O)cc1` (stereo partly drawn) [Compound W7, 1,4-bis(β-D-glucopyranosyloxybenzyl)-2-isobutyltartrate], the Number of errors ([1]; dose 0.25 mg/kg by gavage) was 0.4 ± 0.7, the Number of errors ([1]; dose 1 mg/kg by gavage) was 0.2 ± 0.4 and the “effect … (step-down latency, number of errors)” value [1] was “attenuated the scopolamine-induced impairment of passive avoidance behaviors”. For the same compound, the “Latency” value ([1]; dose 0.25 mg/kg by gavage) was 205 ± 142 s, the “Latency” value ([1]; dose 1 mg/kg by gavage) was 237 ± 125 s and the “acute toxicity” value (KM mice) was “The result is the same”.
